Where “and” joins values, the source holds several entries; their conditions need not be identical. Identical values can stand only once. Entries after “also recorded” stand apart in the source; their conditions may differ.
Experiments:
[1] = system: B16-F10 syngeneic model; test: Subcutaneous B16-F10 syngeneic model, tumor growth; format: in vivo, C57BL/6 mice; settings: 30 mg/kg q.d. * 3W i.p.
[2] = system: B16-F10 syngeneic model; test: Subcutaneous B16-F10 syngeneic model, tumor growth; format: in vivo, C57BL/6 mice
Experimental: In order to evaluate the in vivo efficacy of SIS3 and novel compounds of the present invention, a study has been conducted in treatment of the subcutaneous B16-F10 syngeneic models.
• Animal species and strain: C57BL/6 mice • History of treatment: Naive • Sex, age and weight: Female, 6-8 weeks • Breeder/supplier: Shanghai SLAC Laboratory Animal Co. Ltd • Adaptation: At least 7 days • Room: SPF Room • Room temperature: 20-26° C. • Room relative humidity: 40-70% • Light cycle: Fluorescent light for 12-hour light (08:00-20:00) and 12-hour dark • Animal hosting: 2-5 mice/cage each group • Food: Free access to food • Water: Free access to water (municipal tap water filtered by reverse osmosis or high-pressure sterilizer)
B16-F10 cell was maintained at 37° C. under 5% CO2 in DMEM medium supplemented with 10% FBS and were subsequently cultured within 10 passages before inoculated into the mice.
B16-F10 cells (3×10^5 in 100 μL of serum-free medium) were inoculated to each of C57BL/6 mice via s.c. under anesthesia by 3-4% isoflurane. Each group contains 15 mice.
When average tumor volume reached 35-60 mm^3, 15 mice were randomized into group 6. The day of inoculation was denoted as day 0.
Tumor dimensions were measured on Day 4, 5, 6, 8, 11, 13, 15 and 18, after inoculation in 2 dimensions with calipers.
When required, tumor volume was measured daily. The tumor volume (V) was calculated as follows: V=(length×width^2)/2.
The individual relative tumor volume (RTV) was calculated as follows: RTV=Vt/V0, where Vt was the volume on each day, and V0 was the volume at the beginning of the treatment.
Tumor growth inhibition (TGI), TGI=(1−(Ti−T0)/(Ci−C0))×100%; Ti and Ci as the mean tumor volumes of the treatment and control groups on the measurement day; T0 and C0 as the mean tumor volumes of the treatment and control groups on day 0
Results were expressed as mean±S.E.M. Comparisons between two groups were made by Dunnett's multi-comparison test, p<0.05 were considered as significant.

[3] = target: CYP3A4 (Homo sapiens, UniProt P08684); test: Cytochrome P450 inhibition assay, human liver microsomes, CYP3A4; settings: human
[4] = Solubility in DMSO; format: physicochemical
[5] = single agent, i.p. QD*3 weeks, SIS3 10 and 30 mg/kg, MO-00005 10, 30 and 100 mg/kg, vs vehicle

CYP3A4, sequence (P08684 whole entry): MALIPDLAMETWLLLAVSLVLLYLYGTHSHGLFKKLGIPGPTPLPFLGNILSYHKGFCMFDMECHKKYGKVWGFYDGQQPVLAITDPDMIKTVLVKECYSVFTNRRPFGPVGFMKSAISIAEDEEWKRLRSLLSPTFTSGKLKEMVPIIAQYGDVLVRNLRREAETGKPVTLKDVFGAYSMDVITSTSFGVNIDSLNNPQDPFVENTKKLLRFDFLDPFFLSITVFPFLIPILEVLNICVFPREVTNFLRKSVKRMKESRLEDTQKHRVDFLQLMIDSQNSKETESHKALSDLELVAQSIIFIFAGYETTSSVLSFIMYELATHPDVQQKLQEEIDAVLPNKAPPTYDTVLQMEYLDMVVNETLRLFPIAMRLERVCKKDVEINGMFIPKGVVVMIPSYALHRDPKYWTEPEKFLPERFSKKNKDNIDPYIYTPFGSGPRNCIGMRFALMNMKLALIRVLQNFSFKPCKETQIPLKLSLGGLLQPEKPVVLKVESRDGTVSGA

Compound: COc1cc2c(cc1OC)CN(C(=O)/C=C/c1c(-c3ccccc3)nc3ccccn13)CC2 [Compound 8, (E)-1-(6,7-dimethoxy-3,4-dihydroisoquinolin-2(1H)-yl)-3-(2-phenylimidazo[1,2-a]pyridin-3-yl)prop-2-en-1-one]
- Tumor growth inhibition (%) TGI ([1]; Day 13, calculated based on tumor volume of Day 8): 39%
- Tumor growth inhibition (%) TGI ([1]; Day 15, calculated based on tumor volume of Day 8): 26%
- Tumor growth inhibition (%) TGI ([1]; Day 18, calculated based on tumor volume of Day 8): 18%
- Tumor Sizes (mm3) Mean ([2]; 10 mg/kg q.d. * 3W i.p., Day 4 (estimated value)): 0.62 mm3
- Relative tumor volume Mean ([2]; 10 mg/kg q.d. * 3W i.p., Day 4, RTV=Vt/V0): 0.04
- Tumor Sizes (mm3) Mean ([2]; 10 mg/kg q.d. * 3W i.p., Day 5 (estimated value)): 0.75 mm3
- Relative tumor volume Mean ([2]; 10 mg/kg q.d. * 3W i.p., Day 5, RTV=Vt/V0): 0.04
- Tumor Sizes (mm3) Mean ([2]; 10 mg/kg q.d. * 3W i.p., Day 6 (estimated value)): 4.31 mm3
- Relative tumor volume Mean ([2]; 10 mg/kg q.d. * 3W i.p., Day 6, RTV=Vt/V0): 0.19
- Tumor Sizes (mm3) Mean ([2]; 10 mg/kg q.d. * 3W i.p., Day 8): 38.42 mm3
- Relative tumor volume Mean ([2]; 10 mg/kg q.d. * 3W i.p., Day 8, RTV=Vt/V0): 1.00
- Tumor Sizes (mm3) Mean ([2]; 10 mg/kg q.d. * 3W i.p., Day 11): 151.84 mm3
- Relative tumor volume Mean ([2]; 10 mg/kg q.d. * 3W i.p., Day 11, RTV=Vt/V0): 4.80
- Tumor growth inhibition (%) TGI ([2]; 10 mg/kg q.d. * 3W i.p., Day 11, calculated based on tumor volume of Day 8): 29%
- Tumor Sizes (mm3) Mean ([2]; 10 mg/kg q.d. * 3W i.p., Day 13): 416.04 mm3
- Relative tumor volume Mean ([2]; 10 mg/kg q.d. * 3W i.p., Day 13, RTV=Vt/V0): 12.93
- Tumor growth inhibition (%) TGI ([2]; 10 mg/kg q.d. * 3W i.p., Day 13, calculated based on tumor volume of Day 8): 30%
- Tumor Sizes (mm3) Mean ([2]; 10 mg/kg q.d. * 3W i.p., Day 15): 816.24 mm3
- Relative tumor volume Mean ([2]; 10 mg/kg q.d. * 3W i.p., Day 15, RTV=Vt/V0): 26.76
- Tumor growth inhibition (%) TGI ([2]; 10 mg/kg q.d. * 3W i.p., Day 15, calculated based on tumor volume of Day 8): 23%
- Tumor Sizes (mm3) Mean ([2]; 10 mg/kg q.d. * 3W i.p., Day 18): 2500.45 mm3
- Relative tumor volume Mean ([2]; 10 mg/kg q.d. * 3W i.p., Day 18, RTV=Vt/V0): 93.48
- Tumor growth inhibition (%) TGI ([2]; 10 mg/kg q.d. * 3W i.p., Day 18, calculated based on tumor volume of Day 8): 11%
- Tumor Sizes (mm3) Mean ([2]; 30 mg/kg q.d. * 3W i.p., Day 4 (estimated value)): 0.36 mm3
- Relative tumor volume Mean ([2]; 30 mg/kg q.d. * 3W i.p., Day 4, RTV=Vt/V0): 0.01
- Tumor Sizes (mm3) Mean ([2]; 30 mg/kg q.d. * 3W i.p., Day 5 (estimated value)): 0.56 mm3
- Relative tumor volume Mean ([2]; 30 mg/kg q.d. * 3W i.p., Day 5, RTV=Vt/V0): 0.01
- Tumor Sizes (mm3) Mean ([2]; 30 mg/kg q.d. * 3W i.p., Day 6 (estimated value)): 5.33 mm3
- Relative tumor volume Mean ([2]; 30 mg/kg q.d. * 3W i.p., Day 6, RTV=Vt/V0): 0.16
- Tumor Sizes (mm3) Mean ([2]; 30 mg/kg q.d. * 3W i.p., Day 8): 47.99 mm3
- Relative tumor volume Mean ([2]; 30 mg/kg q.d. * 3W i.p., Day 8, RTV=Vt/V0): 1.00
- Relative tumor volume Mean ([2]; 30 mg/kg q.d. * 3W i.p., Day 11, RTV=Vt/V0): 3.76
- Tumor growth inhibition (%) TGI ([2]; 30 mg/kg q.d. * 3W i.p., Day 11, calculated based on tumor volume of Day 8): 26%
- Tumor Sizes (mm3) Mean ([2]; 30 mg/kg q.d. * 3W i.p., Day 11, listed as MO-00005): 165.30 mm3 and 165.3 mm3
- Tumor Sizes (mm3) Mean ([2]; 30 mg/kg q.d. * 3W i.p., Day 13): 376.62 mm3
- Relative tumor volume Mean ([2]; 30 mg/kg q.d. * 3W i.p., Day 13, RTV=Vt/V0): 10.44
- Tumor Sizes (mm3) Mean ([2]; 30 mg/kg q.d. * 3W i.p., Day 15): 794.11 mm3
- Relative tumor volume Mean ([2]; 30 mg/kg q.d. * 3W i.p., Day 15, RTV=Vt/V0): 21.61
- Tumor Sizes (mm3) Mean ([2]; 30 mg/kg q.d. * 3W i.p., Day 18): 2303.09 mm3
- Relative tumor volume Mean ([2]; 30 mg/kg q.d. * 3W i.p., Day 18, RTV=Vt/V0): 63.87
- Relative tumor volume Mean ([2]; 100 mg/kg q.d. * 3W i.p. (group 6), Day 8, RTV=Vt/V0): 1.00
- Relative tumor volume Mean ([2]; 100 mg/kg q.d. * 3W i.p. (group 6), Day 11, RTV=Vt/V0): 3.70
- Tumor growth inhibition (%) TGI ([2]; 100 mg/kg q.d. * 3W i.p. (group 6), Day 11, calculated based on tumor volume of Day 8): 29%
- Tumor Sizes (mm3) Mean ([2]; 100 mg/kg q.d. * 3W i.p. (group 6), Day 11, listed as MO-00005): 155.10 mm3 and 155.1 mm3
- Tumor Sizes (mm3) Mean ([2]; 100 mg/kg q.d. * 3W i.p. (group 6), Day 13): 335.85 mm3
- Relative tumor volume Mean ([2]; 100 mg/kg q.d. * 3W i.p. (group 6), Day 13, RTV=Vt/V0): 7.98
- Tumor growth inhibition (%) TGI ([2]; 100 mg/kg q.d. * 3W i.p. (group 6), Day 13, calculated based on tumor volume of Day 8): 46%
- Tumor Sizes (mm3) Mean ([2]; 100 mg/kg q.d. * 3W i.p. (group 6), Day 15): 724.03 mm3
- Relative tumor volume Mean ([2]; 100 mg/kg q.d. * 3W i.p. (group 6), Day 15, RTV=Vt/V0): 17.31
- Tumor growth inhibition (%) TGI ([2]; 100 mg/kg q.d. * 3W i.p. (group 6), Day 15, calculated based on tumor volume of Day 8): 32%
- Tumor Sizes (mm3) Mean ([2]; 100 mg/kg q.d. * 3W i.p. (group 6), Day 18): 2107.22 mm3
- Relative tumor volume Mean ([2]; 100 mg/kg q.d. * 3W i.p. (group 6), Day 18, RTV=Vt/V0): 50.47
- Tumor growth inhibition (%) TGI ([2]; 100 mg/kg q.d. * 3W i.p. (group 6), Day 18, calculated based on tumor volume of Day 8): 25%
- Tumor Sizes (mm3) Mean ([2]; 100 mg/kg q.d. * 3W i.p. (group 6, randomized at tumor volume 35-60 mm^3), Day 8): 42.19 mm3
- reduction of tumor weight compared to the control group ([2]; high dose group, after 18 days of the experiment): ~50%
- anti-tumor activity against the B16-F10 syngeneic model (in words) [2, 5]: anti-tumor response; also recorded: significant anti-tumor activity; also recorded: inhibits the growth of cancer
- efficacy on tumor weight (in words) [2, 5]: significant efficacy on tumor weight
- inhibition at 10 µM ([3]; probe midazolam): 41.3%
- inhibition at 10 µM ([3]; probe testosterone): 2.22%
- soluble in DMSO [4]: soluble
